Consider four compounds from patent publication US6180669A, “Method for treatment of dermatological disorders” (priority 1999, dated 2001).

“Also recorded” adds a separate entry of the source. Where two headings read alike, the source gives them in different places.

One series relates to human keratinocytes. The experiment in a line: Cell proliferation assay. Format: cell-based. The note with it: for IC50: Homo sapiens; for potency in inhibiting cell proliferation (in words): in vitro, keratinocytes. On the procedure:
Modulation of keratinocyte proliferation.
Cell proliferation assay.
50,000 human keratinocytes from secondary culture were seeded into 24 well plates, in 1 ml DMEM-F12 medium (Green H. (1978) Cell 15:801-805) with growth factors and 10% Fetal Calf Serum. The cells were incubated at 37° C. in 5% CO2 until 30-40% confluency was reached and then the various test materials, dissolved in ethanol, were added in volumes of 0.1-20 μl, to final volume of 0.5 ml. The same volumes of ethanol were added to control cultures, for comparative values of ethanol cytotoxicity. No apparent cytotoxicity was found up to 40 μl ml ethanol. The medium was replaced with fresh medium prior to addition of the test materials. The cultures were further incubated for 3 days at 37° C. and 5% CO2 and then washed with phosphate buffered saline (PBS). Cell numbers were determined using two methods: 1) trypsinization, followed by cell counting; and 2) fixation of the culture with p-formaldehyde 2% in PBS and methylene blue staining, followed by extraction of color and optical density measurement at 650 nm. Both methods were found in good correlation, so that 1 OD unit corresponded to 1,000,000 cells. IC50, i.e., the concentration that caused 50% inhibition of cell proliferation for each of the test materials is presented in Table 1.

A further series can be described thus: in vitro. The note with it: human, keratinocytes. On the procedure:
The direct effect of the compounds of the invention on the proliferation of human keratinocytes was assessed in vitro using a keratinocyte cell line.
Modulation of keratinocyte proliferation. The effect of di(ethyl salycilate)azelate and di-retinyl azelate on cell proliferation and cell viability was tested in vitro using human keratinocyte culture system.
Keratinocyte cells, as above, were allowed to proliferate in medium, without the test materials, up to 100% confluency, with one exchange of medium during growth. Confluent cultures were incubated with increasing concentrations of the test materials in ethanol for three days at 37° C. and 5% CO2. At the end of the incubation period the cultures were washed with PBS and measured for remaining attached cells using the above described methods.

The test system of the next series is acne. To be noted: 20% preparation, twice daily; Fitton and Goa; cited from earlier work.
In the next series the test system is keratinocytes. The note with it: Passi et al.; cited from earlier work.
Series [1] has as its system reduction of testosterone to dihydrotestosterone. To be noted: literature; cited from earlier work.
In another series the test system is sebaceous glands. The note with it: topical, literature, cited from earlier work.
Series [2] deals with culicoides hypersensitivity. Kind of series: Effect on culicoides hypersensitivity in horses. Format: in vivo, horse. The note with it: 5% alcoholic solution, topically twice daily for two weeks. As for the experimental part:
Prior to treatment, the horses had typical occurrence of the disease, including localized dermatitis affecting the mane and poll and the root of the tail. FIG. 1 is a photograph of the mane area of a horse afflicted by culicoides hypersensitivity. […] The skin at the affected areas looked hairless, ridged and scaly. The shoulder area and hind quarters were also affected. The horses were treated topically with a 5% alcoholic solution of di(ethyl salicylate) azelate, twice daily for two weeks.
The effect of di(ethyl salicylate) azelate on culicoides hypersensitivity was tested in two horses with colicoides hypersensitivity. Prior to treatment, both horses had typical occurrence of the disease, including localized dermatitis affecting the mane and poll and the root of the tail. The shoulder area and hind quarters were also affected. The skin at the affected areas looked hairless, ridged and scaly. The horses were treated topically with a 5% alcoholic solution of di(ethyl salicylate)azelate, twice daily for two weeks. […] As clearly seen in the pictures, hair seemed to regrow and the skin looked healthy. This improvement persisted throughout 14 days of treatment and observation.

The test system of series [3] is comedones, rabbit ear acne model. Kind of series: Efficacy in the rabbit ear acne model (comedolytic effect). The format is in vivo. On the procedure: See, Lee, et al. Kor. J. Dermatol. 28(5):543-549 (1990).
Efficacy of di(ethyl salicylate)azelate (10%) in the rabbit ear acne model. Three mature male albino rabbits were treated as follows. The external ear canals on both ears were treated once daily for five weekdays for three weeks with 1% crude coal tar in Hydrophilic Ointment USP. Then one ear was treated with antiacne lotion of Example 4 once daily for five weekdays for three weeks while the opposite ear served as an untreated control. Excision biopsies were taken from both sides at the end of three weeks of treatment. […] These were judged to be moderate examples of comedones with distortion of the follicular infundibulum by dense horn.

The subject of series [4] is skin oiliness of forehead. Kind of series: Sebolytic effect (skin oiliness of forehead, Skin Tester). Format: in vivo, human. The note with it: lotion of Example 5, twice daily, 14 days; prior to treatment 223 units. As for the experimental part:
Following fourteen days of topical treatment, the skin oiliness of the forehead of a human volunteer, tested using a photometric instrument was reduced from 223 units (resembling "oily skin") to 205 units (normal skin value).
Sebolytic effect of di(ethyl salicylate)azelate. […] Skin oiliness was tested using "Skin Tester, Model STC20" (IMS Ltd., Haifa, Israel) prior to treatment and 14 days thereafter. Prior to treatment, the sebum value was 223 units, typical of oily skin. The sebum value after two weeks of treatment was 205 units, corresponding to normal skin.

The test system of a further series is skin of rabbits. Kind of series: Acute dermal toxicity/irritation test (modified Draise). The format is in vivo, rabbit. To be noted: 10% and 20%, 0.5 ml, 24 h application, observed 1, 24 and 72 h after removal. On the procedure:
These findings emphasize a distinct advantage of di(ethyl salicylate)azelate over its parent components.
Acute dermal toxicity/irritation test. The purpose of this study was to evaluate the acute potential dermal irritation effect on skin following the topical application of di(ethyl salicylate) azelate, in rabbits. This test is a modified version of the original Draise method, as described in OECD guidelines. 0.5 ml of either di(ethyl salicylate)azelate (10% or 20%, dissolved in PEG-400/ethanol 1:1) or the vehicle alone were applied to the skin of three rabbits for 24 hours. Rabbits were examined for signs of skin irritation 1, 24 and 72 hours after the removal of the test solutions. […] Based on the current protocol it was concluded that di(ethyl salicylate) azelate is a non-irritant agent.

A further series relates to skin of a human subject. Kind of series: Human skin irritation test. Format: in vivo. The note with it: 48 h application, 0.1 ml; observed upon removal and 1, 24, 48 h later; ester 20%; mixture 7.5% azelaic acid + 11% salicylic acid. On the procedure:
Human skin irritation test. The following lotions (0.1 ml) were applied to the skin of a human subject for 48 hours, using standard skin irritation test chambers (0.64 sq. cm.):
(1) 20% di(ethyl salicylate)azelate (400 mmole/ml), dissolved in PEG-400/ethanol 1:1;
(2) mixture of 7.5% azelaic acid (400 mmole/ml) and 11% salicylic acid (800 mmole/ml), dissolved in PEG-400/ethanol 1:1; and
(3) PEG-400/ethanol 1:1 (placebo).

Series [5] concerns chin acne; furunculosis (eczema). The experiment in a line: Anti-acne and anti-inflammatory effect in cats (chin acne, furunculosis). The format is in vivo, cat. The note with it: 5% alcoholic solution, twice daily for 14 days. On the procedure:
The compounds of the present invention have been shown in animals to alleviate the symptoms of acne. Four cats with persistant chin acne were treated twice daily for 14 days with 5% alcoholic solution of di(ethyl salicylate) azelate. […] The skin lesions disappeared and the bald areas were covered with new hair.
Anti-acne and anti-inflammatory effect of di(ethyl salicylate) azelate. Four cats were admitted to the veterinary clinic with skin lesions identified as chin acne. One additional cat had localized furunculosis (eczema) on the chin. The area of the skin lesions was 1-4 cm^2 at baseline. All animals were previously treated with either benzoyl peroxide or topical steroids with no response. Cats were treated twice daily for 14 days with a 5% alcoholic solution of di(ethyl salicylate) azelate.

Where [6] appears, read: Keratinocyte, 72 h, 3 days incubation, 50% inhibition of cell proliferation, Table 1, read-out: IC50 (inhibitory concentration).
Where [7] appears, read: keratinocyte cell line, read-out: inhibitory concentration, cell proliferation.
Setting [8] is: cytotoxic concentrations higher than inhibitory concentrations.
[9] abbreviates: listed as di(ethyl salicylate) azelate.

Turning to `O=C(O)CCCCCCCC(=O)O` [Azelaic acid, reference compound], the IC50 stood at 1500 µM with human keratinocytes (setting [6]) and 1000 µM in the series on human keratinocytes (setting [7]). Further, the CC50 at 72 h in the series “in vitro” was 4000 µM. Besides, the selectivity ratio in the series “in vitro” (Safety factor (CD50/ID50)) turned out to be 2.6; in “in vitro” (cytotoxic concentration, times higher than inhibitory concentration), 2.6. Besides, the “time of topical application until effective in acne” value in the series with acne was 3-6 months. Further, the effect on keratinocytes entry with keratinocytes is listed as “antiproliferative effects on keratinocytes”. For the same compound, the “inhibition of testosterone reduction to dihydrotestosterone” value in series [1] was “competitive inhibitor of the reduction of testosterone to dihydrotestosterone”. For the same compound, the “skin oiliness / sebum composition, sebum excretion rate, size of sebaceous glands” value with sebaceous glands was “can not alter skin oiliness”; with sebaceous glands (listed as AZA) it was “failed to induce specific changes in sebum composition, sebum excretion rate and the size of sebaceous glands”.

On to `CC1=C(/C=C/C(C)=C/C=C/C(C)=C/COC(=O)CCCCCCCC(=O)OC/C=C(C)/C=C/C=C(C)/C=C/C2=C(C)CCCC2(C)C)C(C)(C)CCC1` [Di-retinyl azelate, di-retinyl azelate], for which the IC50 in the series with human keratinocytes (setting [6]) and in the series on human keratinocytes (setting [7]) was 15 µM in each case. For the same compound, the “potency in inhibiting cell proliferation (in words)” value with human keratinocytes was “significantly more potent than azelaic acid and salicylic acid”. This compound displayed a CC50 in “in vitro” of 100 µM. Also, the CC50 at 72 h in the series “in vitro” came out at 100 µM. Besides, the selectivity ratio in the series “in vitro” (Safety factor (CD50/ID50)) was 6.6; in the series “in vitro” (setting [8]), 6.6 to 10; in the series “in vitro” (therapeutic safety margin) it was 6.6 to 10.

Turning to `O=C(O)c1ccccc1O` [Salicylic acid, o-hydroxybenzoic acid, reference compound], the IC50 in the series with human keratinocytes (Keratinocyte, 72 h, read-out: IC50 (inhibitory concentration)) turned out to be 1600 µM. For the same compound, in “in vitro”, the CC50 at 72 h is 6000 µM and the selectivity ratio was 3.8.

For the compound `CCOC(=O)c1ccccc1OC(=O)CCCCCCCC(=O)Oc1ccccc1C(=O)OCC` [di(ethyl salicylate)azelate, Nonanedioic acid, di-[(2'-ethoxycarbonyl)phenyl]ester], the “improvement of lesions and hair growth” value is “After one week of treatment, there was a marked improvement in the appearance of all treated lesions; also recorded: hair seemed to regrow and the skin looked healthy. This improvement persisted throughout 14 days of treatment and observation” in series [2]; “After one week of treatment, there was a marked improvement in the appearance of all treated lesions. Hair regrew and the skin looked healthy” in [2] (setting [9]). The IC50 in the series with human keratinocytes (setting [6]) and in the series with human keratinocytes (setting [7]) was 300 µM throughout. Also, in the series on human keratinocytes, the “potency in inhibiting cell proliferation (in words)” value was “significantly more potent than azelaic acid and salicylic acid”. Also, in [3] (10% topical, once daily five weekdays for three weeks), the reduction of comedones entry was “effective in the reduction of comedones; also recorded: All three treated ears showed a marked reduction of the comedones”. Also, the “comedolytic effect compared with 0.025% Retin A Cream” value in series [3] (10% topical, rabbit ear) was “comparable to the effect of 0.025% Retin A Cream”. For the same compound, the “comedolytic effect compared with 20% azelaic acid preparation of the prior art” value in series [3] (10% topical, rabbit ear, comparison with Lee et al.) is given as “superior to a 20% (1,060 mmole/ml) azelaic acid preparation”. In addition, in [3] (topical, rabbit ear, Retin A at 0.025%), the “inflammatory response in treated area” value was “did not induce any inflammatory response in the treated area; also recorded: no inflammatory reaction”. The “sebum value (skin oiliness) after treatment” value in series [4] is 205 units. The “signs of skin irritation” value in the series on skin of rabbits is reported as “no signs of irritation”; in the series with skin of rabbits (setting [9]) it was “no signs of skin irritation were observed”. The CC50 in the series “in vitro” was determined as 3 µM. Besides, the CC50 at 72 h in the series “in vitro” is 3000 µM. The selectivity ratio in the series “in vitro” (Safety factor (CD50/ID50)) is 10; in the series “in vitro” (setting [8]) it was 6.6 to 10; in “in vitro” (therapeutic safety margin) it was 6.6 to 10. For the same compound, in the series on skin of a human subject, the “skin reaction / irritation” value is on record as “did not irritate the skin; also recorded: no sign of any skin reaction”. The “skin irritation in treated cats” value in series [5] is listed as “No skin irritation was noticed in any of the treated cats”. In addition, the “response of chin acne” value in series [5] (four cats) is “Three of the four cats responded to treatment within 10 days; also recorded: Three of the four cats responded to treatment within ten days”. In addition, in [5] (one cat), the “response of furunculosis (eczema)” value is given as “responded positively; also recorded: successfully treated”.
